From publication PMC10709440, “High-throughput ligand profile characterization in novel cell lines expressing seven heterologous insect olfactory receptors for the detection of volatile plant biomarkers” (Scientific Reports, 2023) come the findings set out here.

Several values for one entry are separate records, joined by “and”; a condition that tells them apart may be missing. Equal entries are not always repeated. Where two headings read alike, the source gives them in different places.

In one assay the target is T1, Drosophila OR13a (Drosophila melanogaster, UniProt Q9VXL0).
T1 construct: expressed in transfected cells
T1 sequence (Q9VXL0 1-418): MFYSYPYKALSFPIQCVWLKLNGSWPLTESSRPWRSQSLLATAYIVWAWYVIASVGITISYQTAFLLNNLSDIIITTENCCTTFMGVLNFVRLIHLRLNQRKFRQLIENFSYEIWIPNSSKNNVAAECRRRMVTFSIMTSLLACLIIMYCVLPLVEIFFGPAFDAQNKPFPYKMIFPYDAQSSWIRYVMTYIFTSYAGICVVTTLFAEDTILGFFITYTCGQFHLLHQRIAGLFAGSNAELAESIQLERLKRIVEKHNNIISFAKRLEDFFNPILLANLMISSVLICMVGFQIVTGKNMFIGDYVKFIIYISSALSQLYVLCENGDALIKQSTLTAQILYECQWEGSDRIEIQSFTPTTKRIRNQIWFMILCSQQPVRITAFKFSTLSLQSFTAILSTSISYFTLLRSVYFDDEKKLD
T1 sequence (Q9VNB5 1-486 partner): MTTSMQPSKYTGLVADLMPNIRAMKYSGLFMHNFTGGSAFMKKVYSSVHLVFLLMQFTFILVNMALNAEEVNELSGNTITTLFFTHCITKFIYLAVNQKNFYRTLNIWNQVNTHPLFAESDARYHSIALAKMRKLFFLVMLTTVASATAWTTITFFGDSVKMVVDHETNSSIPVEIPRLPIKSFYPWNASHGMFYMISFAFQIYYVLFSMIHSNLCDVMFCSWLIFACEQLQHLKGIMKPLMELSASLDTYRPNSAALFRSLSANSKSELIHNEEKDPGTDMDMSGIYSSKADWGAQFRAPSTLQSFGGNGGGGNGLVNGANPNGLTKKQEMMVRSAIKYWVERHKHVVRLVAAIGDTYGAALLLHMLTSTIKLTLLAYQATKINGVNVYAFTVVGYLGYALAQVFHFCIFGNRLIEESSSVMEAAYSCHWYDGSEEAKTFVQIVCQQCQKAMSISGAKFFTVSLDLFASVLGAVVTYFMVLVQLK
Description: Calcium ion fluorescence (GCaMP6) assay, OR13a stable HEK293 cell line. Format: cell-based. In a few lines:
(§1)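 HEK293 lines stably expressing each Drosophila OR with GCaMP6, doxycycline-induced (1 μg/mL) 48 or 72 h. Fluorescence recorded 5 s baseline then 30 s after VOC injection at pH 7.3; ΔF=(FMAX−F0)/F0, normalized to 50 µM VUAA1 response per line, triplicate wells averaged; concentration series 0.01–100 μM.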

The next assay deals with T2, Drosophila OR49b (Drosophila melanogaster, UniProt Q9V6H2).
T2 construct: expressed in transfected cells
T2 sequence (Q9V6H2 1-375): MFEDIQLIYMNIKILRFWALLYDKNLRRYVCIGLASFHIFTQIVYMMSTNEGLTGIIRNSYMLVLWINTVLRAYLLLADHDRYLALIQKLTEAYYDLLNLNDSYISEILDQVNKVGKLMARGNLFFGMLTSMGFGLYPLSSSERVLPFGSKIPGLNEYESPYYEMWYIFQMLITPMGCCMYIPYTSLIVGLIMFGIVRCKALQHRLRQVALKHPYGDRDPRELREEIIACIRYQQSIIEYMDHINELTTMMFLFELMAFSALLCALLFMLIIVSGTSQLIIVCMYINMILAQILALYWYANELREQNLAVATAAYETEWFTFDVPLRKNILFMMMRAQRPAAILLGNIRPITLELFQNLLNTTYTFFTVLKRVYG
T2 sequence (Q9VNB5 1-486 partner): T1 sequence (Q9VNB5 1-486 partner)
Description: cell-based. The following applies: for Average response: mean of biological replicates; for DF norm AVERAGE OR49b: threshold 0.05, below shown as 0; for activation at 1 µM / activation at 10 µM / activation at 100 µM: HEK293. The procedure, abridged: as §1

[1] abbreviates: HEK293, read-out: OR13a Average response (VUAA1-normalized), 1 μM VOC, 50 μM VUAA1 = 1, responses not exceeding 0.05 considered 0.
Where [2] appears, read: HEK293, read-out: OR13a Average response (VUAA1-normalized), 10 μM VOC, 50 μM VUAA1 = 1, responses not exceeding 0.05 considered 0.
The mark [3] stands for this setting: ligand concentration 1 (unit not given), threshold 0.05, below shown as 0.
Where [4] appears, read: ligand concentration 10 (unit not given), threshold 0.05, below shown as 0.
Setting [5] is: ligand concentration 100 (unit not given), threshold 0.05, below shown as 0.
[6] abbreviates: OR49b cell line, odorant cc. 1 µM.
Where [7] appears, read: OR49b cell line, odorant cc. 10 µM.
The mark [8] stands for this setting: OR49b cell line, odorant cc. 100 µM.
Where [9] appears, read: ligand concentration 1 (unit not given).
Where [10] appears, read: ligand concentration 10 (unit not given).
The mark [11] stands for this setting: ligand concentration 100 (unit not given).
Setting [12] is: HEK293, read-out: OR13a Average response (VUAA1-normalized), 100 μM VOC, 50 μM VUAA1 = 1, responses not exceeding 0.05 considered 0.
Setting [13] is: HEK293, read-out: OR13a response (VUAA1-normalized response), VOC concentration 1 μM.
[14] abbreviates: HEK293, read-out: OR13a response (VUAA1-normalized response), VOC concentration 10 μM.
[15] abbreviates: HEK293, read-out: OR13a response (VUAA1-normalized response), VOC concentration 100 μM.
Setting [16] is: VOC concentration 1 μM, read-out: OR49b response (VUAA1-normalized response).
[17] abbreviates: VOC concentration 10 μM, read-out: OR49b response (VUAA1-normalized response).
Setting [18] is: VOC concentration 100 μM, read-out: OR49b response (VUAA1-normalized response).

In general, EC50 refers to the concentration needed to bring the measured effect to its halfway point. With `C=Cc1ccccc1` [styrene], the activation at 1 µM at Drosophila OR13a (setting [1]) was 3%. For the same molecule, the activation at 10 µM at Drosophila OR13a (setting [2]) is 0%. At Drosophila OR13a (OR13a cell line, VOC concentration 1 μM), the “OR13a response (VUAA1-normalized) at 1 μM” value worked out at 0.00. In addition, the “OR13a response (VUAA1-normalized) at 10 μM” value at Drosophila OR13a (OR13a cell line, VOC concentration 10 μM) stood at 0.00. In addition, the “OR13a response (VUAA1-normalized) at 100 μM” value at Drosophila OR13a (OR13a cell line, VOC concentration 100 μM) is given as 0.00. For the same molecule, the “DF norm AVERAGE OR13a” value on Drosophila OR13a (ligand concentration 1 (unit not given), 0.05 threshold, values below shown as 0) worked out at 0; at Drosophila OR13a (ligand concentration 10 (unit not given), 0.05 threshold, values below shown as 0) it was 0; at Drosophila OR13a (ligand concentration 100 (unit not given), 0.05 threshold, values below shown as 0), 0. Also, the concentration for a half-maximal effect (EC50) on Drosophila OR49b (AVERAGE EC50, OR49b, printed with 95% confidence interval, matches the average LOG EC50) is 21.1 µM; at Drosophila OR49b (EC50 (fitted parameter), OR49b, fit of each biological replicate), 16.6 µM and 17.3 µM; on Drosophila OR49b (EC50, AVERAGE, OR49b, arithmetic average of 5 replicate EC50), 24.9 µM; at Drosophila OR49b (LOG EC50 (fitted parameter), OR49b, fit of each biological replicate, log of EC50, unit inferred) it was 46.9 µM; at Drosophila OR49b (OR49b cell line, fitted Hill equation, Hill coefficient constrained to 1, maximal response max 1, read-out: EC50), 21.1 µM; on Drosophila OR49b (OR49b, average of 5 biological replicates, read-out: LOG EC50, AVERAGE (converted)) it was 21.1 µM. Besides, the concentration giving a half-maximal response (EC50) at Drosophila OR49b (OR49b, fit of each biological replicate, log of EC50, unit inferred, read-out: LOG EC50 (fitted parameter) (converted)) is 34.6 µM and 16.6 µM and 17.3 µM and 8.95 µM; on Drosophila OR49b (OR49b, fit of each biological replicate, read-out: EC50 (fitted parameter)) it was 34.6 µM and 46.9 µM and 8.95 µM; at Drosophila OR49b (OR49b, fit of the averaged curve, read-out: EC50, FITTED AVERAGE CURVE), 24.4 µM.

Consider `CC/C=C/CCO` [e3-hexenol], for which the “OR13a Average response (VUAA1-normalized)” value at Drosophila OR13a (1 μM VOC, 50 μM VUAA1 = 1, responses not exceeding 0.05 considered 0) is 0.00; at Drosophila OR13a (10 μM VOC, 50 μM VUAA1 = 1, responses not exceeding 0.05 considered 0), 0.00; at Drosophila OR13a (100 μM VOC, 50 μM VUAA1 = 1, responses not exceeding 0.05 considered 0), 0.07. Further, the results for the “DF norm AVERAGE OR13a” value on Drosophila OR13a (setting [3]), on Drosophila OR13a (setting [4]) and at Drosophila OR13a (setting [5]) were 0, 0 and 0.07115, respectively. The values for the Average response on Drosophila OR49b (setting [6]), at Drosophila OR49b (setting [7]) and at Drosophila OR49b (setting [8]) were 0.00, 0.00 and 0.08, respectively. The “DF norm AVERAGE OR49b” value at Drosophila OR49b (setting [9]) came out at 0; at Drosophila OR49b (setting [10]), 0; on Drosophila OR49b (setting [11]), 0.07888.

For the molecule `CC(=O)c1ccccc1` [acetophenone], the activation at 1 µM turned out to be 0% at Drosophila OR13a (setting [1]); 0% at Drosophila OR13a (setting [13]); 0% at Drosophila OR49b (1 μM VOC, 50 μM VUAA1 = 1, read-out: OR49b Average response (VUAA1-normalized)); 0% at Drosophila OR49b (setting [16]). Also, the activation at 10 µM on Drosophila OR13a (setting [2]) amounted to 0%; at Drosophila OR13a (setting [14]), 0%; on Drosophila OR49b (10 μM VOC, 50 μM VUAA1 = 1, read-out: OR49b Average response (VUAA1-normalized)), 0%; at Drosophila OR49b (setting [17]) it was 0%. The activation at 100 µM at Drosophila OR13a (setting [12]) is 0%; on Drosophila OR13a (setting [15]), 0%; on Drosophila OR49b (100 μM VOC, 50 μM VUAA1 = 1, read-out: OR49b Average response (VUAA1-normalized)), 13%; at Drosophila OR49b (setting [18]) it was 13%. Moreover, the “DF norm AVERAGE OR13a” value on Drosophila OR13a (setting [3]), at Drosophila OR13a (setting [4]) and at Drosophila OR13a (setting [5]) was 0 throughout. Moreover, the Average response came out at 0.00 on Drosophila OR49b (setting [6]), 0.00 at Drosophila OR49b (setting [7]) and 0.13 on Drosophila OR49b (setting [8]). Also, the results for the “DF norm AVERAGE OR49b” value at Drosophila OR49b (setting [9]), at Drosophila OR49b (setting [10]) and at Drosophila OR49b (setting [11]) were 0, 0 and 0.1277, respectively.

Turning to `CCCCCCCCCC=O` [decanal], the activation at 1 µM on Drosophila OR13a (setting [1]), on Drosophila OR13a (setting [13]) and on Drosophila OR49b (setting [16]) was 0% throughout. The activation at 10 µM on Drosophila OR13a (setting [2]), on Drosophila OR13a (setting [14]) and on Drosophila OR49b (setting [17]) was 0% in each case. Moreover, the values for the activation at 100 µM at Drosophila OR13a (setting [12]), at Drosophila OR13a (setting [15]) and at Drosophila OR49b (setting [18]) were 0%, 0% and 9%, respectively. Further, the “DF norm AVERAGE OR13a” value at Drosophila OR13a (setting [3]), at Drosophila OR13a (setting [4]) and on Drosophila OR13a (setting [5]) was 0 in each case. For the same molecule, the Average response on Drosophila OR49b (setting [6]) is recorded as 0.00; on Drosophila OR49b (setting [7]) it was 0.00; at Drosophila OR49b (setting [8]), 0.09. Also, the figures for the “DF norm AVERAGE OR49b” value at Drosophila OR49b (setting [9]), on Drosophila OR49b (setting [10]) and on Drosophila OR49b (setting [11]) were 0, 0 and 0.08966, respectively.

Regarding `CCCCCC(=O)CC` [3-octanone], the activation at 1 µM at Drosophila OR13a (setting [1]), on Drosophila OR13a (setting [13]) and at Drosophila OR49b (setting [16]) was 0% throughout. The values for the activation at 10 µM at Drosophila OR13a (setting [2]), on Drosophila OR13a (setting [14]) and at Drosophila OR49b (setting [17]) were 0%, 0% and 17%, respectively. The activation at 100 µM was 2.55% at Drosophila OR13a (setting [12]), 0% at Drosophila OR13a (setting [15]) and 0% on Drosophila OR49b (setting [18]). Also, the “DF norm AVERAGE OR13a” value on Drosophila OR13a (concentration 1, normalized fluorescence change, values below 0.05 threshold given as 0) is 0; on Drosophila OR13a (concentration 10, normalized fluorescence change, values below 0.05 threshold given as 0), 0; at Drosophila OR13a (concentration 100, normalized fluorescence change, values below 0.05 threshold given as 0) it was 0. Further, the Average response on Drosophila OR49b (setting [6]) amounted to 0.0421; on Drosophila OR49b (setting [7]), 0.17; on Drosophila OR49b (setting [8]) it was 0.0439.
